Source: US5016655A, “Cigarette manufacturing process” (priority 1989, dated 1991)
Where two headings read alike, the source gives them in different places.

What was measured:
[1] = test system: localization of nitrosamines (NNN, NNK) in tissues; experiment: nitrosamine delocalization / blocking, general statements; settings: in vivo
[2] = test system: smoker exposure versus effect level in animals; experiment: daily body burden and exposure versus effect level
[3] = calculated air concentrations of cyclohexanol from cigarette smoke; settings: nine puffs at 35 ml, 315 ml
Protocol: Therefore, 0.050 would be in 315 ml, which would be expected from nine puffs at 35 ml per puff. […] However, this exposure in contrast to the eight-hour work day assumption of the TLV is only during the actual puffing time for the smoker.

[4] = Table V; cited from earlier work
[5] = transfer of cyclohexanol into smoke, standard smoking machine (Example 6)
Protocol: Cyclohexanol appears to meet these criteria.
Cigarettes were hand-laced with cyclohexanol, that is by evenly injecting the alcohol into the rod of a manufactured cigarette using a machine-controlled syringe. […] Sixty cigarettes were smoked on a standard smoking machine using Cambridge filter pads to collect the particulate phase, where most of the material is carried. A transfer efficiency of ten percent was established with this test cigarette. […]. The load was 620 micrograms per cigarette, and the transfer efficiency was ten percent. […].

[6] = test system: mice; settings: cited from earlier work
[7] = test system: human; settings: cited from earlier work
[8] = test system: radioactivity ([14C]NNN) in bronchial epithelium; experiment: cyclohexanol vapor inhalation, [14C]NNN autoradiography (Examples 2 and 3); type: in vivo, C57BL/6J mouse; settings: vapor 5 min
Protocol: The mouse was kept in the closed beaker for about five minutes as the bottom of the beaker was maintained at 50° C. in a water bath. […] Handbook of Chemistry and Physics (1979), at D-203 to D-217.
One hour later, the mouse was anesthetized lightly by ether and frozen by immersion in dry ice/hexane. […] Control experiments were conducted for comparison purposes and radioactivity was detected in the respiratory epithelium in the controls.
Example 2 was duplicated, except that the mouse was kept in the closed beaker for five minutes as the bottom of the beaker was maintained at 26° C. in a water bath. […] After injection as in Example 2, the mouse was processed in the same manner as in Example 2.

[9] = transfer of cyclohexanol to cigarette smoke, gas chromatography (Example 7)
Protocol: This work was performed to determine the amount of cyclohexanol transferred to smoke from cigarettes loaded with the chemical. Duplicate runs were carried out. In each run, smoke from twenty cigarettes, twelve puffs/cigarette, was collected. Cyclohexanol was analyzed in both the particulate (filter extract) and non-particulate phases of cigarette smoke by gas chromatography. A standard curve was made and analyzed simultaneously with the samples.
The total volume of smoke from 20 cigarettes=12×33.3×20=7992 ml [formula]
These calculations are based on the following information:
Using conventional manufacturing practices, 1,000 pounds of dressed rag tobacco yields 510,000 finished cigarettes. These ratios and yields are to be strictly monitored. The ratio of top dressing to rag tobacco is based on the published TLV's for the active ingredient of this dressing--cyclohexanol.

[10] = test system: rabbits; settings: TLV documentation (1943); cited from earlier work
[11] = test system: F-344 rat esophagus; settings: F-344 rat esophagus vs other tissues; cited from earlier work
[12] = test system: tumor formation; settings: nasal cavity, salivary duct, esophagus, bronchial epithelium, liver; cited from earlier work

OC1CCCCC1 [Cyclohexanol]
effectiveness against NNN or NNK [1]: effective against NNN
efficacy in the laboratory [1]: highly effective in the laboratory
body burden from a pack of cigarettes ([2]; all cyclohexanol in smoke absorbed, 20 cigarettes): 1.0 mg
daily burden ([2]; one pack a day smoker): 0.014 mg/kg
mouse iv toxic dose versus human exposure ([2]; one pack a day smoker): 20,000 times
difference in exposure versus effect level in animals ([2]; rats, pharmacological changes (enzyme or neurotoxicity)): ~20,000 fold
instantaneous concentration to a smoker as % of TLV [3]: about 75 % of the TLV value
Boiling Point [4]: 161 °C
smoked concentration as % of TLV ([5]; 620 micrograms per cigarette): 99 % of cyclohexanol TLV
smoked concentration as % of TLV ([5]; 8750 micrograms loaded per cigarette): 1389 % of TLV
acute intravenous toxic dose [6]: 270 mg/kg
TLV ([7]; Example 7 summary): 200
TLV ([7]; Table of smokestream concentrations): 200.0 µg/L
TLV ([7]; Table of smokestream concentrations, listed as cyclohexanol): 200 µg/L
OSHA safe air level ([7]; eight continuous hours): two hundred
Toxicity: OSHA time weighted average limit ([7]; eight hour work day and forty hour work week): 200 mg/m^3
radioactivity in bronchial epithelium ([8]; 26° C., 0.001% in air): No radioactivity was detected
radioactivity in bronchial epithelium ([8]; 50° C., 0.01% in air): No radioactivity was detected
% of TLV ([9]; Example 7 summary): 59.5%
Percent of TLV ([9]; Fully Smoked Cigarette): 59.5%
Percent TLV ([9]; Instant ("Puff") Exposure): 4.9%
slight degenerative changes, air level [10]: about 600 mg per cubic meter

O=NN1CCCC1c1cccnc1 (stereo not drawn) [NNN, N'-Nitrosonoronicotine]
hydroxylation at the a-carbon of NNN adjacent to the pyridine ring [11]: preferentially catalyzes hydroxylation
number of sites of tumor formation [12]: five
